We go through three compounds from ChEMBL document CHEMBL1137021, “The phenolic diterpene totarol inhibits multidrug efflux pump activity in Staphylococcus aureus” (Antimicrob Agents Chemother, 2007).

Molecules are shown by their SMILES. Values after ≈ are worked out from the molar mass of the structure shown. Active and inactive are the calls of the source. The rule behind the calls is not given here.

The test system of experiment [1] is Staphylococcus aureus. The experiment in a line: Antimicrobial activity against Staphylococcus aureus K3092 overexpressing NorA gene. In kind it is functional.
Experiment [2] concerns Staphylococcus aureus. As to the kind of experiment: Antimicrobial activity against totarol-resistant Staphylococcus aureus K3090. Type of experiment: functional.
Experiment [3] concerns Staphylococcus aureus. The experiment in a line: Antimicrobial activity against NorA deficient Staphylococcus aureus K1758. Type of experiment: functional.
The subject of experiment [4] is Staphylococcus aureus. The experiment in a line: Antimicrobial activity against Staphylococcus aureus NCTC 8325-4 expressing NorA gene. In kind it is functional.
The target in experiment [5] is T1, Quinolone resistance protein NorA (Staphylococcus aureus, UniProt P0A0J7).
T1 sequence (P0A0J7 whole entry): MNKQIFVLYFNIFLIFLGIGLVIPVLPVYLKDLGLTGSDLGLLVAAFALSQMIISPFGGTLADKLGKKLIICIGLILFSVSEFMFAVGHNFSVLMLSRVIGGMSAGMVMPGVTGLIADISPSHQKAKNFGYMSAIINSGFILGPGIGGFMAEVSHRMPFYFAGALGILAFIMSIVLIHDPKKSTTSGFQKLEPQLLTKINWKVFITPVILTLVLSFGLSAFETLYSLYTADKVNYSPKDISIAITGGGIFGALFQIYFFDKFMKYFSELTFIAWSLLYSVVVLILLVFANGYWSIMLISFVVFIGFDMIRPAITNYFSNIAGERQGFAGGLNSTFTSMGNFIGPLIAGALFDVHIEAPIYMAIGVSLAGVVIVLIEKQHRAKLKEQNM
As to the kind of experiment: Inhibition of NorA efflux pump in Staphylococcus aureus K3092 assessed as inhibition of EtBr efflux.

The subject of experiment [6] is Staphylococcus aureus. As to the kind of experiment: Inhibition of tetK efflux pump in Staphylococcus aureus XU212 assessed as reduction in tetracycline MIC at 1 ug/ml.
The nature of experiment [7]: Ratio of inhibition of CHO cells to IC50 for chloroquine-resistant Plasmodium falciparum.
In experiment [8] the target is T2, Quinolone resistance protein NorA (Staphylococcus aureus) (UniProt P0A0J7).
T2 sequence (whole entry): T1 sequence (P0A0J7 whole entry)
As to the kind of experiment: Inhibition of NorA efflux pump in Staphylococcus aureus K3092 assessed as reduction in ethidium bromide MIC.

The test system of experiment [9] is Plasmodium falciparum. As to the kind of experiment: Antiplasmodial activity against chloroquine-resistant Plasmodium falciparum. In kind it is functional, organism-based.
Experiment [10] addresses T2, Quinolone resistance protein NorA (Staphylococcus aureus). The experiment in a line: Inhibition of NorA efflux pump in Staphylococcus aureus 1199B assessed as reduction in ethidium bromide MIC.
The test system of experiment [11] is Staphylococcus aureus. As to the kind of experiment: Antimicrobial activity against Staphylococcus aureus XU212 expressing tetK pump. In kind it is functional, organism-based.
Experiment [12] addresses T2, Quinolone resistance protein NorA (Staphylococcus aureus). The experiment in a line: Inhibition of NorA efflux pump in Staphylococcus aureus 1199B assessed as reduction in Norfloxacin MIC at 1 ug/ml.
Experiment [13] relates to Staphylococcus aureus. As to the kind of experiment: Antimicrobial activity against Staphylococcus aureus ATCC 25923. Type of experiment: functional.
In experiment [14] the test system is Staphylococcus aureus. As to the kind of experiment: Antimicrobial activity against Staphylococcus aureus 1199B expressing NorA pump. Type of experiment: functional, organism-based.
For experiment [15], the system named is Staphylococcus aureus. As to the kind of experiment: Antimicrobial activity against Staphylococcus aureus RN4220 expressing MsrA protein. Type of experiment: functional, organism-based.
Experiment [16] concerns the target T2, Quinolone resistance protein NorA (Staphylococcus aureus). The experiment in a line: Inhibition of NorA efflux pump in methicillin-resistant Staphylococcus aureus assessed as reduction in methicillin MIC.
Experiment [17] relates to Staphylococcus aureus. The experiment in a line: Inhibition of MsrA efflux pump in Staphylococcus aureus RN4220 assessed as reduction in erythromycin MIC at 1 ug/ml.
In experiment [18] the target is T2, Quinolone resistance protein NorA (Staphylococcus aureus). The experiment in a line: Inhibition of NorA efflux pump in Staphylococcus aureus isolate15 assessed as potentiation of oxacillin MIC.

For `CC[n+]1c(-c2ccccc2)c2cc(N)ccc2c2ccc(N)cc21.[Br-]` [HOMIDIUM BROMIDE], the MIC (in general, the lowest concentration that inhibits growth of the organism) in experiment [1] came out at 100 µg/mL; in experiment [2], 0.63 µg/mL; in experiment [3], 0.63 µg/mL; in experiment [4], 6.25 µg/mL.

As for `COC(=O)[C@H]1[C@H]2C[C@@H]3c4[nH]c5cc(OC)ccc5c4CCN3C[C@H]2C[C@@H](OC(=O)c2cc(OC)c(OC)c(OC)c2)[C@@H]1OC` [RESERPINE], the IC50 (usually the concentration that inhibits the measured activity by half) in [5] was 8 µM.

In the case of `CC(C)c1c(O)ccc2c1CC[C@H]1C(C)(C)CCC[C@]21C` [TOTAROL], the minimum inhibitory concentration (MIC) in experiment [1] amounted to 16 µg/mL (≈ 55.9 µM); in experiment [2], 16 µg/mL (≈ 55.9 µM); in experiment [13], 2 µg/mL (≈ 6.98 µM); in [3] it was 1.25 µg/mL (≈ 4.36 µM); in experiment [4] it was 2.5 µg/mL (≈ 8.73 µM). Further, the fold change (FC) in experiment [6] stood at 4; in experiment [12] it was 4; in experiment [16], 8; in experiment [17] it was 8; in [18], 50. Also, in experiment [7], the Ratio is 40. The outcome in experiment [8], in [10], in experiment [11], in experiment [14] and in experiment [15] was Active. Besides, the IC50 is 4.29 µM in experiment [9] and 15 µM in experiment [5].
